Earlier results, collected in article PMC4004541, “PEG-Like Nanoprobes: Multimodal, Pharmacokinetically and Optically Tunable Nanomaterials” (PLoS ONE, 2014).

Parameters: method as in manufacturer's package insert
Conditions: humans; ref manufacturer's package insert; cited from earlier work

## CC1(C)C(/C=C/C=C/C=C/C=C2\N(CCCCS(=O)(=O)O)c3ccc4ccccc4c3C2(C)C)=[N+](CCCCS(=O)(=O)[O-])c2ccc3ccccc3c21 [ICG, indocyanine green]
  Blood half-life: 2.5 to 3 min
